Results taken from patent US20250146074A1 (The General Hospital Corporation, priority 2023, published 2025).

Tests used:
[1] = tested on: Firmicutes CAG:176 thiolase (FcTHL); test: Kinetic assay of 5-ASA acetylation; assay type: biochemical, Firmicutes bacterium CAG:176; conditions: 5-ASA varied, 1 mM acetyl-CoA, 5 μM enzyme, 37° C.
Method: The samples were injected into an Infinity Lab Poroshell120 Hilic column (2.1×100 mm 2.7 μm) at 25° C. […] This was followed by a 3 second gradient to 40% mobile phase B. This was then followed by a 27 second gradient returning to 5% mobile phase A at a flow rate of 1200 μL/min. This flow rate and ratio was held for an additional 48 seconds. Additional column equilibration was carried out on a secondary pump for 117 seconds at 5% mobile phase A and a flow rate of 1000 μL/min. MS was conducted in negative ion mode using electrospray ionization. […] Other MS settings were as follows: heater temp 300° C., ESI nebulizer 45 psi, spray voltage 3.5 kV, acquisition time 100 ms/spectrum. […] For absolute quantification, all samples were normalized to the taurine internal standard and concentrations calculated against a standard curve.

[2] = tested on: F. prausnitzii acyl-CoA N-acetyltransferase (FpGNAT, UniRef90 ID C7H1G6); test: In vitro mass spectrometry end-point assay for 5-ASA acetylation; assay type: biochemical, Faecalibacterium prausnitzii; conditions: 6 hr at 37° C., 1 mM of each substrate, 50 μM enzyme
From the text: (§1) Having identified thiolase and acyl-CoA N-acetyltransferase superfamilies with potential 5-ASA-inactivating capabilities, we sought to biochemically confirm these predicted activities in vitro. […] We expressed the known NAT from Salmonella enterica, the candidate thiolase from Firmicutes CAG:176 (UniRef90 ID R6CZ24), and the acyl-CoA N-acetyltransferase from F. prausnitzii (UniRef90 ID C7H1G6) for further biochemical characterization (FIG. 14a). […] The known S. enterica enzyme served as a positive control (FIG. 14b).
(§2) Identities of the constructs were confirmed with DNA sequencing and then were transformed into E. coli BL21 strains for expression according to the standardized protocols from GenScript. All E. coli expression constructs were grown anaerobically in sealed Hungate tubes in Terrific Broth (VWR) supplemented with 5 mM MgSO4 and kanamycin (50 μg/mL) and were incubated at 37° C. overnight before dilution at 1:100 into fresh media the following morning. […]
(§3) The samples were injected into an Infinity Lab Poroshell120 Hilic column (2.1×100 mm 2.7 μm) at 25° C. […] For absolute quantification, all samples were normalized to the taurine internal standard and concentrations calculated against a standard curve.

[3] = tested on: Firmicutes CAG:176 thiolase (FcTHL, UniRef90 ID R6CZ24); test: as above; assay type: biochemical, Firmicutes bacterium CAG:176; conditions: 6 hr at 37° C., 1 mM of each substrate, 50 μM enzyme
From the text: as §1, §2, §3

fecal metabolome = test: Fecal metabolome pre- and post-5-ASA in new users (IBDMDB); assay type: in vivo, human; conditions: stool pre- vs post-5-ASA
Method: A portion of each selected stool sample (40-100 mg) and the entire volume of originating ethanol preservative were stored in 15-ml centrifuge tubes at −80° C. until all samples were collected. Samples were then thawed on ice and centrifuged (4° C., 5,000 g) for 5 min. Ethanol was evaporated using a gentle stream of nitrogen gas using a nitrogen evaporator (TurboVap LV; Biotage) and stored at −80° C. until all samples in the study had been dried. After a homogenization and vortexing process, the mixture was aliquoted and stored at −80° C. until LC-MS analyses.
A combination of four untargeted LC-MS methods were used to profile metabolites in the fecal homogenates, as previously published;^22 two methods that measure polar metabolites (a method that measures metabolites of intermediate polarity (for example, fatty acids and bile acids), and a lipid profiling method: 1) HILIC-pos (positive ion mode MS analyses of polar metabolites), 2) HILIC-neg (negative ion mode MS analysis of polar metabolites), 3) C18-neg (negative ion mode analysis of metabolites of intermediate polarity; for example, bile acids and free fatty acids), and 4) C8-pos. Lipids (polar and nonpolar). Additionally, pairs of pooled reference samples were inserted into the queue at intervals of approximately 20 samples for quality control and data standardization. […]
Raw LC-MS data were acquired to the data acquisition computer interfaced to each LC-MS system and then stored on a robust and redundant file storage system (Isilon Systems) accessed via the internal network at the Broad Institute. […] Identification of nontargeted metabolite LC-MS peaks was conducted by: i) matching measured retention times and masses to mixtures of reference metabolites analyzed in each batch; and ii) matching an internal database of >600 compounds that have been characterized using the Broad Institute methods. Temporal drift was monitored and normalized with the intensities of features measured in the pooled reference samples. […]

[4] = in vivo; cited from earlier work
[5] = human, in vivo; cited from earlier work
[6] = in vivo; cited from earlier work; remark: listed apart in the source
colonic epithelial cells = conditions: cited from earlier work
[7] = tested on: Firmicutes CAG:176 thiolase (FcTHL); test: Promiscuity (substrate competition) assay of the thiolase with amine-containing xenobiotics; conditions: 1 mM substrate, 5 μM enzyme, room temperature 1 hour
Method: Enzyme concentrations were calculated according to Beer's Law with extinction coefficients calculated by Benchling software based on the amino acid sequences of the putative enzymes. […] Reactions were conducted at 37° C. for 6 hours for the initial endpoint assay and room temperature for 1 hour for the promiscuity assay. Quenching/extraction for the promiscuity assay was with equal volumes of acetonitrile and methanol. Quenching/extraction for the end-point was one part sample and nine-parts extraction mix (75% acetonitrile:25% methanol v/v with 10 μM 1,2-^13C2-taurine from Cambridge Isotopes as an internal standard for quantification). Samples were vortexed and cooled to −20° C. and then centrifuged prior to LC-MS analysis.
For the promiscuity assays, mass spectrometry analyses were conducted using an LC-MS system composed of an Agilent 1260 Infinity HPLC (Agilent Technologies) coupled to a 6530 Accurate-Mass QTOF LC-MS (Agilent Technologies). The samples were injected into a 150×3 mm Hypersil GOLD aQ column (Thermo Scientific) at 30° C. […] Remaining identities were inferred using calculated masses with a mass detection tolerance of 10 ppm. Raw data from the LC-MS were analyzed using Agilent MassHunter Qualitative Analysis 10.0 software.

With `Nc1ccc(O)c(C(=O)O)c1` [5-ASA, 5-aminosalicylic acid] the Km ([1]; +/−0.46 mM) was 1.88 mM, the kcat ([1]; +/−0.0199) was 0.0647 min⁻¹ and the “conversion of 5-ASA to N-acetyl 5-ASA using acetyl-CoA” value [2] was > 25%. The “conversion of 5-ASA to N-acetyl 5-ASA using acetyl-CoA” value [3] was > 25%, the “abundance of fecal 2-aminoadipate following 5-ASA treatment” value (fecal metabolome; 13 new users) was “reduced” and the “abundance of fecal nicotinic acid (NA) with 5-ASA” value (fecal metabolome) was “dropped”. The “abundance of fecal nicotinuric acid (NUA) with 5-ASA” value (fecal metabolome) was “dramatically increased”, the “intraluminal stool concentrations of 5-ASA (median)” value [4] was 30 mM and the “IBD patients who fail to respond or eventually lose response” value [5] was “over half”.
In the case of `CC(=O)Nc1ccc(O)c(C(=O)O)c1` [N-acetyl 5-ASA], the “anti-inflammatory activity in placebo-controlled trials” value [6] is given as “lacks anti-inflammatory activity” and the “bioavailability to colonic epithelial cells” value (colonic epithelial cells) is given as < 5%.
In the case of `NNc1nncc2ccccc12` [hydralazine], the “acetylation of the compound by the thiolase” value [7] is reported as “did not observe any acetylation”.
In the case of `CCN(CC)CCNC(=O)c1ccc(N)cc1` [procainamide], the “acetylation of the compound by the thiolase” value [7] is reported as “did not observe any acetylation”.
